Reference: patent US8933070B2, “Methods of targeting PTEN mutant diseases and compositions therefor” (University Health Network, priority 2010, dated 2015)

Tests used:
PLK1 = target: T1, PLK1 (Homo sapiens, UniProt P53350); test: PLK1 inhibition assay (Z-Lyte); format: biochemical; details: dose of 10 μM; read-out: PLK1 relative inhibition percentage
T1 construct: purchased Invitrogen PV3501
Description: PLK1 inhibition was determined using the Z-Lyte assay kit from Invitrogen (cat#PV3802). The assay was performed using the recommended manufacturer's instructions with 25 μM ATP and 8 nM PLK1 (Invitrogen cat #PV3501). The % inhibition values were determined according to the manufacturer's directions and IC50 values were obtained using a non-linear 4 point logistic curve fit (XLfit4, IDBS)

PLK2 = target: T2, PLK2 (Homo sapiens, UniProt Q9NYY3); test: PLK2 inhibition assay (Z-Lyte); format: biochemical; details: for inhibition at 10 µM: dose of 10 μM, read-out: PLK2 relative inhibition percentage
T2 construct: purchased Invitrogen PV4204
T2 sequence (Q9NYY3 whole entry): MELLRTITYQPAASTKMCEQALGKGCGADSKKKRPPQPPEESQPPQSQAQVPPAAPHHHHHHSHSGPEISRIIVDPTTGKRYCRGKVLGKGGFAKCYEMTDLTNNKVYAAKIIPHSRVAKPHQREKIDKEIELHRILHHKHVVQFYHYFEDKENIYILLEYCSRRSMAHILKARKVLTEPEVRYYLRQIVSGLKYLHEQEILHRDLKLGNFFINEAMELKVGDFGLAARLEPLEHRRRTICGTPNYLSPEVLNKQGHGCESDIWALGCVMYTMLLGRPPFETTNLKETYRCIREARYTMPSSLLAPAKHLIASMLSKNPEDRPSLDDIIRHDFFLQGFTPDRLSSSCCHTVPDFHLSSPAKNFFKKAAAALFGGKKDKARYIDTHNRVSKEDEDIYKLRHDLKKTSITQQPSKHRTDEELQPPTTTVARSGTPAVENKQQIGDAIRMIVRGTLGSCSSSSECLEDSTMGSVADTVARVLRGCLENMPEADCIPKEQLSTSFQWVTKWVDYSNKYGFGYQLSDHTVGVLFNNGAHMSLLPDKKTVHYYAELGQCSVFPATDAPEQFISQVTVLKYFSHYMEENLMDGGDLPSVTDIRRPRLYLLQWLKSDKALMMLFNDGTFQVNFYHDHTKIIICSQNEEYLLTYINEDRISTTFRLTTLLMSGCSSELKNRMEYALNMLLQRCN
Description: (§1) PLK2 inhibition was determined using the Z-Lyte assay kit from Invitrogen (cat# PV3802). The assay was performed using the recommended manufacturer's instructions with 60 μM ATP and 133 nM PLK2 (Invitrogen cat #PV4204). The % inhibition values were determined according to the manufacturer's directions and IC50 values were obtained using a non-linear 4 point logistic curve fit (XLfit4, IDBS)

[1] = tested on: MDA-MB-468 basal breast cancer cell line; test: Cell growth inhibition, Sulforhodamine B (SRB) assay; format: cell-based; details: Homo sapiens, MDA-MB-468, 120 h; 5 days, SRB; read-out: Cell Line GI50 Range MDA-MB-468
[2] = tested on: A549 lung cancer cell line; test: as above; format: cell-based; details: Homo sapiens, A549, 120 h; 5 days, SRB; read-out: Cell Line GI50 Range A549
Description: (§2) Aliquots (20 μl) from each concentration were overlaid to 80 μl of the pre-seeded cells in the 96-plates to make final concentrations of 10 nM to 50 μM. The cells were cultured for 5 days before the Sulforhodamine B (SRB) assay was performed to determine the compound's cell growth inhibition activity.
(§3) Sulforhodamine B (Sigma, Canada) is a water-soluble dye that binds to the basic amino acids of cellular proteins. Thus, colorimetric measurement of the bound dye provides an estimate of the total protein mass that is related to the cell number. The cells are fixed in situ by gently aspirating off the culture media and adding 50 μl ice cold 10% Trichloroacetic Acid (TCA) per well and incubated at 4° C. for 30-60 min. The plates are washed with water five times and allowed to air dry for 5 min. Addition of 50 μl 0.4% (w/v) SRB solution in 1% (v/v) acetic acid to each well and incubatation for […] at RT completes the staining reaction. Following staining, plates are washed four times with 1% acetic acid to remove unbound dye and then allowed to air dry for 5 min. […] Absorbance is read at 570 nm.
(§4) The percentage (%) of relative growth inhibition was calculated by comparing to DMSO-treated only cells (100%). GI50's were determined for compounds with cytotoxic activity. The GI50 was calculated using GraphPad PRISM software (GraphPad Software, Inc., USA).

[3] = tested on: human mammary epithelial primary cells (HMEC); test: as above; format: cell-based; details: 120 h, 5 days, SRB, normal primary breast cells, read-out: Cell Line GI50 Range HMEC
Description: as §2, §3, §4

[4] = tested on: MCF-7 luminal breast cancer cell line; test: as above; format: cell-based; details: Homo sapiens, MCF7, 120 h; 5 days, SRB; read-out: Cell Line GI50 Range MCF-7
Description: as §2, §3, §4

[5] = tested on: SW620 colon cancer cell line; test: as above; format: cell-based; details: Homo sapiens, SW-620, 120 h; 5 days, SRB; read-out: Cell Line GI50 Range SW620
Description: as §2, §3, §4

[6] = tested on: HCC1954 basal breast cancer cell line; test: as above; format: cell-based; details: Homo sapiens, HCC1954, 120 h; 5 days, SRB; Table 5; read-out: Cell Line GI50 Range HCC1954
Description: as §2, §3, §4
The SRB assay described above was used to assay test compounds against the extended panel (Table 6).

human PLK4 = target: T3, human PLK4 (Homo sapiens, UniProt O00444); test: PLK4 inhibition assay (indirect ELISA); format: biochemical; details: read-out: IC50 Ranges PLK4
T3 construct: amino terminal GST fusion of residues 1-391 of human PLK4; made in house; host or cells: E. coli
T3 sequence (O00444 1-391): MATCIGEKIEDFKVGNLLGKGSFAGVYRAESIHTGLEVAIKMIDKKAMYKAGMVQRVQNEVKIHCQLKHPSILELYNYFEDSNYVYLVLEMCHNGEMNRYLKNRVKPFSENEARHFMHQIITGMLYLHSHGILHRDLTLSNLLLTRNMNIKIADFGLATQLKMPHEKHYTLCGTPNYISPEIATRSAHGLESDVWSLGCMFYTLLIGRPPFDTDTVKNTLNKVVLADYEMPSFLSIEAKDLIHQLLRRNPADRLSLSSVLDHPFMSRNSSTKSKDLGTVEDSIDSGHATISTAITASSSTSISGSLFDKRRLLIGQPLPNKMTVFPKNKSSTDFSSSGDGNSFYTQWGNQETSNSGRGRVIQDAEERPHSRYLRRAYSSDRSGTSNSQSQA
Description: The protein was purified from clarified cell extracts after induction at 15° C. overnight using glutathione sepharose, gel permeation chromatography, and ion exchange (Resource Q). The resulting protein was dephosphorylated with lambda phosphatase (NEB cat# P0753), and resolved from the phosphatase using gluthione sepharose. The dephosphorylated GST-PLK4 was stored in aliquots at −80° C. until use.
PLK4 activity was measured using an indirect ELISA detection system. […] The colourimetric reaction was allowed to continue for 5 minutes, followed by addition of stop solution (0.5 N sulphuric acid), and quantified by detection at 450 nm with either a monochromatic or filter based plate reader (Molecular Devices M5 or Beckman DTX880, respectively).
Compounds were pre-incubated in the presence of enzyme for 15 minutes prior to addition of ATP and the activity remaining quantified using the above described activity assay. […] The IC50 value was determined using a non-linear 4 point logistic curve fit (XLfit4, IDBS) with the formula; (A+(B/(1+((x/C)^D)))), where A=background value, B=range, C=inflection point, D=curve fit parameter.

FGFR1 = test: Millipore kinase assay (radiolabelled phosphopeptide filter binding), IC50 estimate; format: biochemical; details: estimated from inhibition at three compound concentrations; ATP at Km; read-out: IC50 value estimates against FGFR1
Description: For a number of compounds, IC50 values were estimated against kinases of interest based on Millipore protocols. Kinase assays at Millipore were performed using a radiolabelled phosphopeptide filter binding detection system, in duplicate, at each compound concentration. The ATP substrate concentration in the reactions was at the Km for each enzyme.
To allow for a more direct comparison of compound inhibition, an IC50 value was estimated from the inhibition determined at three compound concentrations. Several assumptions were made to allow this calculation using a 4 parameter non linear curve fit model, including full inhibition set at 100%, no inhibition set to 0%, and a curve fit parameter set at 1. The inflection point was reported as the estimated […].

AMPKalpha = test: Kinase selectivity assay (CEREP, HTRF); format: biochemical, human
Description: The inhibitory activity of selected compounds was evaluated against a panel of 45 different kinase enzymes by CEREP, France. The assays were performed using standard HTRF assay methods as documented by CEREP against the human orthologues of Abl kinase, Akt1/PKBa, AMPKa, BMX kinase (Etk), Brk, CaMK2a, CaMK4, CDC2/CDK1 (cycB), CHK1, CHK2, c-Met kinase, CSK, EphB4 kinase, ERK1, ERK2 (P42mapk), FGFR2 kinase, FGFR4 kinase, FLT-1 kinase (VEGFR1), FLT-3 kinase, Fyn kinase, IGF1R kinase, IRK (InsR), JNK 2, KDR kinase (VEGFR2), Lck kinase, Lyn kinase, MAPKAPK2, MEK1/MAP2K1, p38a kinase, p38d kinase, p38g kinase, PDGFRb kinase, PDK1, PKA, PKCa, PKCb1, PKCb2, PKCg, Ret kinase, ROCK2, RSK2, Src kinase, Syk, and TRKA. The % Inhibition was determined by the formula; % Inhibition=100×(1−(experimental value−background value)/(high activity control−background value)).

Aurora B = target: T4, Aurora B (Homo sapiens, UniProt Q96GD4); test: Aurora B inhibition assay (Z-Lyte); format: biochemical; details: read-out: IC50 Ranges Aurura B
T4 construct: purchased Invitrogen PV3970
T4 sequence (Q96GD4 whole entry): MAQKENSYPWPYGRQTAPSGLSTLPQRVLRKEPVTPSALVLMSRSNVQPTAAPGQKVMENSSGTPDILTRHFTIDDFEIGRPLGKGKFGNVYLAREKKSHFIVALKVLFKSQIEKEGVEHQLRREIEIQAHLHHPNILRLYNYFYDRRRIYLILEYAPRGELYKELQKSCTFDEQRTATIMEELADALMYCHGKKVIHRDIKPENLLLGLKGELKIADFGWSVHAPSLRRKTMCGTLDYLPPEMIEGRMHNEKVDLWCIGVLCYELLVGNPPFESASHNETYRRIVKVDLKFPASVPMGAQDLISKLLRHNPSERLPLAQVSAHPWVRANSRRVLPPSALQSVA
Description: Aurora B inhibition was determined using the Z-Lyte assay kit from Invitrogen. […] The % inhibition values were determined according to the manufacturer's directions and IC50 values were obtained using a non-linear 4 point logistic curve fit (XLfit4, IDBS).

Aurora A = target: T5, Aurora A (Homo sapiens, UniProt O14965); test: Aurora A inhibition assay (Z-Lyte); format: biochemical; details: for inhibition at 10 µM: dose of 10 μM, read-out: Aurora A relative inhibition percentage
T5 construct: purchased Invitrogen PV3612
T5 sequence (O14965 1-403): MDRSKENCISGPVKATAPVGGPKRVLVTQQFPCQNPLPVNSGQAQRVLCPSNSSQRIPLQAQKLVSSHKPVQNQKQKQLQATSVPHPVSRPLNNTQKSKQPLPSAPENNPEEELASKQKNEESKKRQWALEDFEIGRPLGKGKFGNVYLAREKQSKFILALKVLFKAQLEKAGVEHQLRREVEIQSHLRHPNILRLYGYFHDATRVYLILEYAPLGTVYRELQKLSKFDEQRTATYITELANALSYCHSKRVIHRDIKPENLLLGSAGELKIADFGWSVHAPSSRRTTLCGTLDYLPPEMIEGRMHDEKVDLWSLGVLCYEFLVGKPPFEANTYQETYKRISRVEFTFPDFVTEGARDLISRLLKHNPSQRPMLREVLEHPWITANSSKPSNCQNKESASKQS
Description: as §1, with “Aurora A” for “PLK2”, “Invitrogen.” for “Invitrogen (cat# PV3802).”, “20 nM” for “60 μM”, “12” for “133”, “#PV3612).” for “#PV4204).”

T1 sequence (P53350 whole entry): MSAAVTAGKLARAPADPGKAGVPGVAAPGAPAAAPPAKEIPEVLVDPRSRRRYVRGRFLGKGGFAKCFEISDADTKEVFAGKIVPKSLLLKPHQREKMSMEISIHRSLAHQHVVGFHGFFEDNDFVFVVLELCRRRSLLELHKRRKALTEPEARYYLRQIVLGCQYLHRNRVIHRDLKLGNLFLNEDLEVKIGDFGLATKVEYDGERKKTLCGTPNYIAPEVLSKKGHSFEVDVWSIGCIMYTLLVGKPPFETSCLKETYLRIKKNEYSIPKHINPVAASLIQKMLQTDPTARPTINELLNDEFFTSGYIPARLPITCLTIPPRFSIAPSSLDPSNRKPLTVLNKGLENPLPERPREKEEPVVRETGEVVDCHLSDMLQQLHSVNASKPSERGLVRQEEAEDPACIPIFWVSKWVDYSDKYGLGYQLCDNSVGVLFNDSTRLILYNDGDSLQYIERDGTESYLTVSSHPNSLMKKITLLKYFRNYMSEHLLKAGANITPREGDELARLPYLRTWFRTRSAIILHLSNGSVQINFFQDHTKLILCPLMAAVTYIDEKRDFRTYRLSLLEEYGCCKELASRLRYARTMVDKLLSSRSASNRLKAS

## CN(C)Cc1ccc(/C=C/c2n[nH]c3cc([C@@H]4C[C@@]45C(=O)Nc4ccccc45)ccc23)cc1 (racemic) [Compound 5]
PLK1
  inhibition at 10 µM: < 50%
PLK2
  inhibition at 10 µM: < 50%

## O=C1Nc2ccccc2[C@@]12C[C@@H]2c1ccc2c(/C=C/c3ccncc3)n[nH]c2c1 (racemic) [Compound 6]
[1]
  GI50: < 5 µM
PLK2
  inhibition at 10 µM: < 50%
[2]
  GI50: < 5 µM
[3]
  GI50: 5 to 20 µM
[4]
  GI50: < 5 µM
[5]
  GI50: < 5 µM
[6]
  GI50: < 5 µM

## O=C1Nc2ccccc2[C@@]12C[C@@H]2c1ccc2cn[nH]c2c1 (racemic) [Compound 40]
PLK2; read-out: IC50 Ranges PLK2
  IC50: > 50 µM

## COc1ccc2c(c1)/C(=C\c1ccc3c(/C=C/c4ccc(CN(C)C)cc4)n[nH]c3c1)C(=O)N2 [Compound 1]
Human PLK4
  IC50: < 5 µM

## O=C1Nc2ccccc2C1=Cc1ccc2c(/C=C/c3ccccn3)n[nH]c2c1 [Compound 9]
FGFR1
  IC50: < 5 µM
AMPKalpha
  % Inhibition at 10 μM Concentration: 81%

## Cc1ncsc1/C=C/c1n[nH]c2cc(/C=C3/C(=O)Nc4ccccc43)ccc12 [Compound 10]
Human PLK4
  IC50: < 5 µM
Aurora B
  IC50: < 5 µM

## COc1ccc2c(c1)/C(=C\c1ccc3c(-c4ccc(N(C)C)nc4)n[nH]c3c1)C(=O)N2 [Compound 11]
Human PLK4
  IC50: < 5 µM
Aurora A; read-out: IC50 Ranges Aurora A
  IC50: < 5 µM
Aurora B
  IC50: < 5 µM

## COc1ccc2c(c1)C1(CC1c1ccc3c(I)n[nH]c3c1)C(=O)N2 (centres unmarked) [Compound 12]
Human PLK4
  IC50: < 5 µM

## O=C1Nc2ccccc2/C1=C\c1ccc2[nH]nnc2c1 [Compound 24]
AMPKalpha
  % Inhibition at 10 μM Concentration: 15%

## O=C1Nc2ccccc2/C1=C\c1ccc2cn[nH]c2c1 [Compound 26]
AMPKalpha
  % Inhibition at 10 μM Concentration: 54%

## O=C1Nc2ccccc2/C1=C\c1ccc2c(/C=C/c3ccncc3)n[nH]c2c1 [Compound 28]
FGFR1
  IC50: < 5 µM

## O=C1Nc2ccccc2/C1=C\c1ccc2c(/C=C/c3ccccc3Cl)n[nH]c2c1 [Compound 29]
AMPKalpha
  % Inhibition at 10 μM Concentration: 8%

## COc1ccc2c(c1)C(=Cc1ccc3c(-c4ccc(N5CCN(C)CC5)nc4)n[nH]c3c1)C(=O)N2 [Compound 31]
FGFR1
  IC50: < 5 µM
AMPKalpha
  % Inhibition at 10 μM Concentration: 76%

## COc1ccc2c(c1)[C@]1(C[C@H]1c1ccc3c(/C=C/c4ccc(CN5CCOCC5)cc4)n[nH]c3c1)C(=O)N2C [Compound 36]
Aurora A
  inhibition at 10 µM: > 50%
Aurora B
  IC50: < 5 µM

## COc1ccc2c(c1)[C@]1(C[C@H]1c1ccc3c(/C=C/c4ccc(CN5C[C@@H](C)O[C@@H](C)C5)cc4)n[nH]c3c1)C(=O)N2 [Compound 37]
Aurora A
  inhibition at 10 µM: > 50%

## C[C@@H]1CN(Cc2ccc(/C=C/c3n[nH]c4cc([C@@H]5C[C@@]56C(=O)Nc5ccccc56)ccc34)cc2)C[C@H](C)O1 [Compound 38]
Aurora A
  inhibition at 10 µM: > 50%

## CN(C)Cc1ccc(/C=C/c2n[nH]c3cc(C=C4C(=O)Nc5ccccc54)ccc23)cc1 [Compound 39]
PLK1
  inhibition at 10 µM: < 50%
FGFR1
  IC50: < 5 µM
Aurora A
  inhibition at 10 µM: > 50%
